Test results as given in patent US12532889B2, “Herbicidal compositions comprising glufosinate” (BASF SE, priority 2023, dated 2026).

Tests used:
Assay in all cases: Post-emergence application in field trials (Example A)
Assay type in all cases: in vivo
[1] = tested on: ELEIN (Eleusine indica); settings: A-1 25, B-6 252 g ai/ha, water 400 l/ha
[2] = tested on: CYPDI (Cyperus difformis); settings: CYPDI height 25 cm
Experimental: (§1) In the examples below, using the method of S. R. Colby (1967) “Calculating synergistic and antagonistic responses of herbicide combinations”, Weeds 15, p. 22ff., the value E, which is expected if the activity of the individual active compounds is only additive, was calculated:
(§2) [formula] • where • X=percent activity using active herbicide A at an application rate a; • Y=percent activity using active herbicide B (e.g. glufosinate) at an application rate b; • E=expected activity (in %) by A+B at application rates a+b.
(§3) If the value found experimentally is higher than the value E calculated according to Colby, a synergistic effect is present.
(§4) On field test sites, natural weed infestation or seeded weeds were treated post-emergence of the weeds.
(§5) In the field trials, the weeds were treated as indicated below.
(§6) In the following experiments, the herbicidal activity for the individual herbicidal compositions (solo and mixture applications) was assessed at the indicated days after treatment (DAT). The assessments for the damage on undesired weeds caused by the composition was carried out using a scale from 0 to 100%, compared to the untreated control plants. Here, 0 means no damage and 100 means complete destruction of the plants.
(§7) Post-emergence application of Herbicide A-1 (A-1) and glufosinate ammonium (B-2) in Field Trials:
(§8) Herbicide A-1 (50 g/l), glufosinate ammonium (200 g/l) and optional herbicide C were, together with addition of 0.5% v/v MSO (methylated seed oil) as adjuvant, formulated in water as distribution medium as indicated and sprayed with commercial flat fan nozzles.

[3] = tested on: SPCHI (Spermacoce hispida); settings: Table 1.2, SPCHI height 25 cm, 14 DAT, water volume 100 l/ha, 0.5% v/v MSO
Experimental: as §1, §2, §3, §4, §5, §6, §7, §8

[4] = tested on: ELEIN (Eleusine indica)
Experimental: as §1, §2, §3, §4, §5, §6, §7, §8

[5] = tested on: DIGIN = TRCIN (Digitaria insularis)
Experimental: as §1, §2, §3, §4, §5, §6, §7, §8

[6] = tested on: AMAPA (Amaranthus palmeri); settings: Table 1.27, AMAPA height 30 cm, 21 DAT, water 200 l/ha
Summary of the method: (§9)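 Colby-expected additive activity (E) served as reference for mixture responses in post-emergence field trials on natural or seeded weeds. Activity was visually scored 0–100% against untreated controls at indicated DAT.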

[7] = tested on: CYNDA (Cynodon dactylon); settings: A-1 25, B-6 252 g ai/ha, 28 DAT, water 400 l/ha
Summary of the method: as §9

[8] = tested on: GALAP (Galium aparine); settings: Table 3.1; GALAP growth stage 11-16, height 2-20 cm; A-1 18, B-2 500 g ai/ha; 28 DAT; water 100 l/ha
Summary of the method: as §9

[9] = tested on: HORVS (Hordeum vulgare (spring barley)); settings: Table 3.1, HORVS volunteer barley, growth stage 22-24, height 32-35 cm, 28 DAT, water 100 l/ha
Summary of the method: as §9

[10] = tested on: BOILF (Spermacoce latifolia); settings: Table 1.16, A-1 25, B-2 400 g ai/ha, 21 DAT, water 200 l/ha
Summary of the method: as §9

[11] = tested on: BIDPI (Bidens pilosa); settings: Table 1.14; BIDPI height 20-45 cm; A-1 50, B-2 400 g ai/ha; 21 DAT; water 100 l/ha
Summary of the method: as §9

[12] = tested on: IPOTR (Ipomoea triloba); settings: 21 DAT
Summary of the method: as §9

[13] = tested on: CYPIR (Cyperus iria); settings: Table 2.1, CYPIR growth stage 13-14, height 3-5 cm, 14 DAT, water 300 l/ha
Summary of the method: as §9

[14] = tested on: SETVE (Setaria verticillata); settings: 42 DAT, growth stage 21-23, height 8-16 cm
Summary of the method: as §9

[15] = tested on: CYPKH (Cyperus kyllingia var. humilis); settings: Table 5.4; CYPKH growth stage 76-77, height 13-14 cm; A-1 25, B-6 252 g ai/ha; 28 DAT; water 400 l/ha
Summary of the method: as §9

## CCOC(=O)COc1ccccc1Oc1nc(-n2c(=O)cc(C(F)(F)F)n(C)c2=O)c(F)cc1Cl [A-1, ethyl 2-[2-[[3-chloro-5-fluoro-6-[3-methyl-2,6-dioxo-4-(trifluoromethyl)pyrimidin-1-yl]-2-pyridyl]oxy]phenoxy]acetate]
[1]; Table 5.1, ELEIN height 5-20 cm, 21 DAT
  % herbicidal activity: 57%
[1]; Table 5.6, ELEIN growth stage 14-15, height 9-14 cm, 28 DAT
  % herbicidal activity: 91%
[2]; Table 1.15, A-1 25, B-2 400 g ai/ha, 21 DAT, water 100 l/ha
  % herbicidal activity: 50%
[2]; Table 1.2, A-1 solo 25 g ai/ha, 14 DAT, water volume 100 l/ha, 0.5% v/v MSO
  % herbicidal activity: 52%
[2]; Table 1.2, A-1 solo 50 g ai/ha, 14 DAT, water volume 100 l/ha, 0.5% v/v MSO
  % herbicidal activity: 60%
[3]; A-1 solo 25 g ai/ha
  % herbicidal activity: 40%
[3]; A-1 solo 50 g ai/ha
  % herbicidal activity: 50%
[4]; Table 1.10, ELEIN growth stage 23-25, height 3-5 cm, A-1 25, B-2 400 g ai/ha, 20 DAT, water 200 l/ha
  % herbicidal activity: 82%
[4]; Table 1.1, ELEIN growth stage 24, A-1 solo 25 g ai/ha, 14 DAT, water volume 100 l/ha, 0.5% v/v MSO
  % herbicidal activity: 75%
[4]; Table 1.14, ELEIN growth stage 24, A-1 25, B-2 400 g ai/ha, 21 DAT, water 100 l/ha
  % herbicidal activity: 58%
[4]; Table 1.15, ELEIN height 25 cm, A-1 25, B-2 400 g ai/ha, 21 DAT, water 100 l/ha
  % herbicidal activity: 50%
[4]; Table 1.15, ELEIN height 25 cm, A-1 50, B-2 400 g ai/ha, 21 DAT, water 100 l/ha
  % herbicidal activity: 60%
[4]; Table 1.18, ELEIN growth stage 24, A-1 25, B-2 400 g ai/ha, 21 DAT, water 200 l/ha
  % herbicidal activity: 67%
[4]; Table 1.18, ELEIN growth stage 24, A-1 50, B-2 400 g ai/ha, 21 DAT, water 200 l/ha
  % herbicidal activity: 82%
[4]; Table 1.21, ELEIN growth stage 24, A-1 25, B-2 400 g ai/ha, 21 DAT, water 200 l/ha
  % herbicidal activity: 68%
[4]; Table 1.21, ELEIN growth stage 24, A-1 50, B-2 400 g ai/ha, 21 DAT, water 200 l/ha
  % herbicidal activity: 73%
[4]; Table 1.4, ELEIN growth stage 24, A-1 50, B-2 400 g ai/ha, 14 DAT, water 200 l/ha
  % herbicidal activity: 88%
[4]; Table 1.9, ELEIN growth stage 23-25, height 3-5 cm, A-1 25, B-2 400 g ai/ha, 20 DAT, water 100 l/ha
  % herbicidal activity: 91%
[5]; Table 1.13, DIGIN height 20-30 cm, A-1 50, B-2 400 g ai/ha, 21 DAT, water 100 l/ha
  % herbicidal activity: 30%
[5]; Table 1.17, DIGIN height 20-30 cm, A-1 50, B-2 400 g ai/ha, 21 DAT, water 200 l/ha
  % herbicidal activity: 30%
[5]; Table 1.19, DIGIN height 20-30 cm, A-1 50, B-2 400 g ai/ha, 21 DAT, water 200 l/ha
  % herbicidal activity: 30%
[5]; Table 1.20, DIGIN height 60-80 cm, A-1 50, B-2 400 g ai/ha, 21 DAT, water 200 l/ha
  % herbicidal activity: 55%
[5]; Table 1.22, DIGIN in tillering stage, height 5-15 cm, A-1 50, B-2 400 g ai/ha, 21 DAT, water 200 l/ha
  % herbicidal activity: 57%
[5]; Table 1.22, DIGIN in tillering stage, height 5-15 cm, A-1 50, B-2 600 g ai/ha, 21 DAT, water 200 l/ha
  % herbicidal activity: 57%
[5]; Table 1.23, DIGIN growth stage 16-18, height 15-25 cm, A-1 50, B-2 400 g ai/ha, 21 DAT, water 200 l/ha
  % herbicidal activity: 57%
[5]; Table 1.23, DIGIN growth stage 16-18, height 15-25 cm, A-1 50, B-2 600 g ai/ha, 21 DAT, water 200 l/ha
  % herbicidal activity: 57%
[5]; Table 1.24, DIGIN growth stage 67, height 100 cm, A-1 50, B-2 400 g ai/ha, 21 DAT, water 200 l/ha
  % herbicidal activity: 7%
[5]; Table 1.24, DIGIN growth stage 67, height 100 cm, A-1 50, B-2 600 g ai/ha, 21 DAT, water 200 l/ha
  % herbicidal activity: 7%
[5]; Table 1.25, DIGIN in tillering stage, height 8-20 cm, A-1 50, B-2 400 g ai/ha, 21 DAT, water 200 l/ha
  % herbicidal activity: 53%
[5]; Table 1.25, DIGIN in tillering stage, height 8-20 cm, A-1 50, B-2 600 g ai/ha, 21 DAT, water 200 l/ha
  % herbicidal activity: 53%
[5]; Table 1.26, DIGIN in tillering stage, height 50-70 cm, A-1 50, B-2 400 g ai/ha, 21 DAT, water 200 l/ha
  % herbicidal activity: 55%
[5]; Table 1.26, DIGIN in tillering stage, height 50-70 cm, A-1 50, B-2 600 g ai/ha, 21 DAT, water 200 l/ha
  % herbicidal activity: 55%
[5]; Table 1.3, DIGIN height 60-80 cm, A-1 25, B-2 400 g ai/ha, 14 DAT, water 200 l/ha
  % herbicidal activity: 37%
[5]; Table 1.3, DIGIN height 60-80 cm, A-1 50, B-2 400 g ai/ha, 14 DAT, water 200 l/ha
  % herbicidal activity: 60%
[5]; Table 1.5, DIGIN growth stage 16-18, height 15-25 cm, A-1 50, B-2 400 g ai/ha, 14 DAT, water 200 l/ha
  % herbicidal activity: 62%
[5]; Table 1.5, DIGIN growth stage 16-18, height 15-25 cm, A-1 50, B-2 600 g ai/ha, 14 DAT, water 200 l/ha
  % herbicidal activity: 62%
[5]; Table 1.7, DIGIN height 50-70 cm, tillering stage, A-1 solo 50 g ai/ha, 14 DAT, water volume 200 l/ha, 0.5% v/v MSO
  % herbicidal activity: 42%
[6]; A-1 12.5, B-2 400 g ai/ha
  % herbicidal activity: 70%
[6]; A-1 25, B-2 400 g ai/ha
  % herbicidal activity: 85%
[7]; Table 5.4, CYNDA growth stage 76-77, height 15-16 cm
  % herbicidal activity: 53%
[7]; Table 5.5, CYNDA growth stage 72
  % herbicidal activity: 72%
[8]
  % herbicidal activity: 79%
[9]; A-1 12.5, B-2 500 g ai/ha
  % herbicidal activity: 40%
[9]; A-1 18, B-2 500 g ai/ha
  % herbicidal activity: 85%
[10]
  % herbicidal activity: 72%
[11]
  % herbicidal activity: 74%
[12]; Table 1.11, A-1 25, B-2 400 g ai/ha, water 100 l/ha
  % herbicidal activity: 85%
[12]; Table 1.16, A-1 25, B-2 400 g ai/ha, water 200 l/ha
  % herbicidal activity: 82%
[13]; A-1 12.5, B-2 500 g ai/ha
  % herbicidal activity: 30%
[13]; A-1 25, B-2 500 g ai/ha
  % herbicidal activity: 60%
[14]; A-1 12.5 g ai/ha
  % Herbicidal activity: 60%
[14]; A-1 18 g ai/ha
  % herbicidal activity: 50%
[15]
  % herbicidal activity: 61%
